Reference: patent US20100273769A1, “COMPOSITION AND METHOD FOR THE TREATMENT OF PARKINSON'S DISEASE” (priority 2009, published 2010)
Read-outs that look alike come from different tables or passages of the source.

Tests used:
[1] = target: ERK2 (Homo sapiens, UniProt P28482); test: Kinase specificity, ERK2; assay type: biochemical; conditions: 100 μM ATP
[2] = target: T1, wildtype human LRRK2 (Homo sapiens, UniProt Q5S007); test: Adapta assay, inhibition of wildtype human LRRK2 kinase fragment with LRRKtide; assay type: biochemical
T1 construct: human LRRK2 protein fragment encompassing amino acids 1326 to 2527; GST; made in house
T1 sequence (Q5S007 1326-2527): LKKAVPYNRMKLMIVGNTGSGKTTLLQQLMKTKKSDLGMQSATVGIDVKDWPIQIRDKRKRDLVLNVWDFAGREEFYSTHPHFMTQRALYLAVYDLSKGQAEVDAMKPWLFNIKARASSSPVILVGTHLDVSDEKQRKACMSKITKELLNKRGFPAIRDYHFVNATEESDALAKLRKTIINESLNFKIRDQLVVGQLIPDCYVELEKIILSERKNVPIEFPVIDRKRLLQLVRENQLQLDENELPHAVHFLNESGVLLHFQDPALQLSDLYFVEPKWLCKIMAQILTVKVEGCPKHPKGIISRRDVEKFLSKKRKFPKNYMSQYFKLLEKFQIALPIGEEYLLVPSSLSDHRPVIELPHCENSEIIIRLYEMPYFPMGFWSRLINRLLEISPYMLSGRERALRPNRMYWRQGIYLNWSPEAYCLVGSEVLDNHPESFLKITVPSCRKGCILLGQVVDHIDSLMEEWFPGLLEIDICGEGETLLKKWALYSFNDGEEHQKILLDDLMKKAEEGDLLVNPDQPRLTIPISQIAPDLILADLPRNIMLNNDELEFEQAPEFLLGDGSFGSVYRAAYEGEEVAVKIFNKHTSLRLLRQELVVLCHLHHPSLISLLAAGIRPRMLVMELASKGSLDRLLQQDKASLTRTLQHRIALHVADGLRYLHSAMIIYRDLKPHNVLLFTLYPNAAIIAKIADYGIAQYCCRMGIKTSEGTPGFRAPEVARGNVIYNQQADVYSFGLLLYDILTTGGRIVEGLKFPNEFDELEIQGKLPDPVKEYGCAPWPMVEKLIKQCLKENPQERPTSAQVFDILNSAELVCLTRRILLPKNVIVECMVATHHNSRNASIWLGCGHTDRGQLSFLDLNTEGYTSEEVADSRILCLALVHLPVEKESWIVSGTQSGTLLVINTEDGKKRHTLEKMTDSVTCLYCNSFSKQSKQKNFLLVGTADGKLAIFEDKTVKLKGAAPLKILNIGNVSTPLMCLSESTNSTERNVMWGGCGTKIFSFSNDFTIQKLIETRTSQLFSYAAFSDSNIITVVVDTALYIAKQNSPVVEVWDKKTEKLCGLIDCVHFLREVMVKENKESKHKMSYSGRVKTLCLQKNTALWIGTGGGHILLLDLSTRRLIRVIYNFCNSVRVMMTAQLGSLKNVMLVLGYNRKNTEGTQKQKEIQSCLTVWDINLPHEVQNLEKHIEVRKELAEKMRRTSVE

[3] = tested on: R1441C LRRK2 transgenic C. elegans; test: Food-sensing (slowing) response in LRRK2 transgenic C. elegans; assay type: in vivo; conditions: Caenorhabditis elegans, 96 h; exposure through larval stages to adult stage day 4; read-out: Half-maximal restoration of the slowing response after food exposure
Method: Dopaminergic neurons in C. elegans are involved in food sensing behavior such that in the absence of food worms move more rapidly, as assessed by determining their bending frequency on an agar plate not supplied with food. In an established assay the animals are then exposed to food, and the difference in motility is recorded in the form of bending frequency [Sawin et al., Neuron 26, 619-631 (2000)]. […] In approximate synchrony with the dopaminergic neurodegeneration this slowing response is essentially eliminated after 4 days. […] The slowing response can be reconstituted to a substantial degree by supplementation with dopamine, confirming that the phenotype is due to loss of dopaminergic input (FIG. 5).
The clear-cut functional phenotype of this model can be used to determine the efficacy of LRRK2 kinase inhibitors and the accurate determination of their potency in a biological context. […] The potency is expressed as the half-maximal restoration of the slowing response. […]
The functional consequence of dopaminergic neurodegeneration was assayed using the food-sensing response resulting in a slowing of motility after food exposure as assessed by the frequency of body bending within 20 second intervals in groups of 10 animals [Sawin et al., Neuron 26, 619-631 (2000)]. […]

[4] = rodents, in vivo

Chain of ERK2 (P28482 whole entry, species assumed, the tested form may be a part): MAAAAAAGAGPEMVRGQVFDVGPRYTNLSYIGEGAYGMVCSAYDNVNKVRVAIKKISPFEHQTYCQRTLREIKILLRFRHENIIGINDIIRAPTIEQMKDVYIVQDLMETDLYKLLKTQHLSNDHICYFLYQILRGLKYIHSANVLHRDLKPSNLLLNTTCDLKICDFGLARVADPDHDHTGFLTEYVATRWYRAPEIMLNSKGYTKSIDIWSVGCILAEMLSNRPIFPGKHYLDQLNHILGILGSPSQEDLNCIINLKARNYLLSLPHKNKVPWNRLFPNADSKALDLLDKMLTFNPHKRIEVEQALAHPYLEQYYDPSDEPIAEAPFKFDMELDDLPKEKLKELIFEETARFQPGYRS

With `CNC(=O)[C@@]1(N)CC2OC1(C)n1c3ccccc3c3c4c(c5c6ccccc6n2c5c31)C(=O)NC4` (stereo partly drawn) [Compound 3] the IC50 [1] was 26 nM, the “IC50 relative to nominal kinase concentration, wild-type LRRK2” value ([2]; 100 μM ATP, FIG. 3A) was “substantially below the nominal concentration of the kinase itself” and the IC50 ([2]; 100 μM ATP, read-out: LRRK2) was 1.1 nM. The IC50 ([2]; 100 microM ATP, read-out: LRRK2 inhibitory potency (essentially receptor-limited)) was ≤ 1 nM, the EC50 [3] was 30 nM and the “Plasma concentration sustained without detectable toxicity” value [4] was 600 to 800 nM.
